Measured values: ChEMBL document CHEMBL1147373, “Patagonicol: a diterpenoid from the Chinese soft coral Alcyonium patagonicum” (J Nat Prod, 1993)
The source made the active and inactive calls. The rule behind the calls is not given here.

Columns and labels:
[1] = tested on: P388; test: Cytotoxicity against mouse P388 cells; assay type: functional, cell-based
[2] = tested on: Candida albicans; test: Antifungal activity against Candida albicans; assay type: functional, organism-based

Question: For C=C1CC[C@H](C(C)C)[C@@H]2[C@H]1[C@H]1C[C@](C)(O)[C@@H](OCC)CC[C@@](C)(O)[C@@H]2O1, which Activity [1] is on record?
Answer: inactive

Question: What about the Activity [2] of the same compound?
Answer: inactive
